How the values were obtained:
hA2AAR [1] = target: T1, hA2AAR (Homo sapiens, UniProt P29274); conditions: label-free whole-cell assay, HEK293hA2AR
hA2AAR [2] = target: T1, hA2AAR; conditions: 1 μM; all adenosine receptor subtypes
[3] = patients with heart failure; cited from earlier work

T1 sequence (P29274 whole entry): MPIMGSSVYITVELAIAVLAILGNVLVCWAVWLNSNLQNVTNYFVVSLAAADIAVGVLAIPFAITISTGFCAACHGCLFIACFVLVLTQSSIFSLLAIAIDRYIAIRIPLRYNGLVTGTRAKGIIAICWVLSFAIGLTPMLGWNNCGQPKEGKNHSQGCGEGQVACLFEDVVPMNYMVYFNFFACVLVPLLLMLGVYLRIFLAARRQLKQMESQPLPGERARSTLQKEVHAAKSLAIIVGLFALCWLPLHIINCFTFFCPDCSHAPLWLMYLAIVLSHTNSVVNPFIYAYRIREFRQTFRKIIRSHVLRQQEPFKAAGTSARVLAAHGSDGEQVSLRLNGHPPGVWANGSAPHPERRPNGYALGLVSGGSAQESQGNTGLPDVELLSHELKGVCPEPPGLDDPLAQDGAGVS

functional behavior / intrinsic activity at hA2AAR (hA2AAR [1])	SMILES	further results
inverse agonism	Nc1nc(SCc2ncc[nH]2)nc(-c2ccccc2)n1 [Compound 2, 4-(1H-Imidazol-2-yl)methylthio-6-phenyl-1,3,5-triazin-2-amine]	
inverse agonist	N#Cc1c(SCc2ncc[nH]2)nc(N)nc1-c1ccccc1 [Compound 3, 4-((1H-Imidazol-2-yl)methylthio)-2-amino-6-phenylpyrimidine-5-carbonitrile]	

The next lines start with the compound.

SMILES	functional behavior / intrinsic activity at hA2AAR (hA2AAR [1])	further results
Nc1cc(-c2ccccc2)cc(SCc2ncc[nH]2)n1 [Compound 5, 6-(((1H-Imidazol-2-yl)methyl)thio)-4-phenylpyridin-2-amine]		displacement of radioligand binding in preliminary single-concentration assays (hA2AAR [2]): no or negligible displacement
N#Cc1c(-c2ccccc2)cc(N)nc1SCc1ncc[nH]1 [Compound 6, 2-(((1H-Imidazol-2-yl)methyl)thio)-6-amino-4-phenylnicotinonitrile]	did not show any measurable degree of intrinsic activity	
N#Cc1c(SCc2csc(-c3ccc(Cl)cc3)n2)nc(N2CCCC2)c(C#N)c1-c1ccc(OCCO)cc1 [neladenoson]		primary endpoint of phase 2b clinical trial [3]: failed to meet the primary endpoint
